≈ marks a conversion by molar mass, not a printed value.
Legend:
[1] = system: Candida krusei ATCC 6258 (strain I); test: Antifungal MIC determination (CLSI M27-A3, 96-well); assay type: cell-based; conditions: strain I; compounds 1-4n and AmB; 48 h, RPMI 1640
Experimental: (§1) Fungal MIC determination experiments were performed using untreated 96-well plates (Corning). Cells were counted either by using a hemocytometer (Hausser Scientific, Horsham, Pa., USA) or by measuring optical density at attenuance of 600 nm (OD600) by using a Genesys 20 spectrophotometer (Thermo Scientific, Waltham, Mass., USA). Spectrophotometric and colorimetric measurements in 96-well plates were performed using a SpectraMax M5 spectrometer (Molecular Devices, Sunnyvale, Calif., USA).
(§2) Yeast strains Candida albicans ATCC 10231 (strain A), C. albicans ATCC 64124 (strain B), and C. albicans ATCC MYA-2876(S) (strain C) were kindly provided by Dr. Jon Y. Takemoto (Utah State University, Logan, UT, USA). C. albicans ATCC MYA-90819(R) (strain D), C. albicans ATCC MYA-2310(S) (strain E), C. albicans ATCC 1237(R) (strain F), C. albicans ATCC MYA-1003(R) (strain G), Candida glabrata ATCC 2001 (strain H), Candida krusei ATCC 6258 (strain I), and Candida parapsilosis ATCC 22019 (strain J) were obtained from the American Type Culture Collection (ATCC, Manassas, Va., USA). The (S) and (R) indicate that ATCC reports these strains to be susceptible (S) and resistant (R) to ITC and FLC. The filamentous fungal strains Aspergillus flavus ATCC MYA-3631 (strain K), and Aspergillus terreus ATCC MYA-3633 (strain M) were also obtained from the American Type Culture Collection (ATCC, Manassas, Va., USA). Aspergillus nidulans ATCC 38163 (strain L) was kindly provided by Dr. Jon S. Thorson (University of Kentucky, Lexington, Ky., USA), respectively. Yeast strains were cultured at 35° C. Filamentous fungal strains were cultured at 25° C. and the spores were harvested. All fungal strains were cultured in RPMI 1640 medium (catalog # R6504, Sigma-Aldrich Chemical Co., St. Louis, Mo.) buffered to pH 7.0 with 0.165 M morpholinepropanesulfonic acid (MOPS) buffer (Sigma-Aldrich Chemical Co.).
(§3) The MIC values against fungal strains were determined based on a previously published protocol. MIC values for ebsulfur (2a) analogues against fungal cells were evaluated in 96-well plates as described in the CLSI document M27-A3 with minor modifications. […] Therefore, potato dextrose broth (PDB) was used to grow the yeast inocula of all strains tested, which were later diluted in RPMI 1640 medium to perform determination of MIC values. […] The tested compounds (10 mg/mL) were diluted to the working stocks (500 μg/mL) by addition of DMSO. Two-fold serial dilution of the working stocks was prepared by addition of RPMI 1640 medium (100 μL) and cell suspension (100 μL) to 96-well microtiter plate to achieve final drug and inoculum concentrations ranging from 12.5-0.02 μg/mL and 5×10^3 CFU/mL, respectively. Plates were incubated for 48 h at 35° C. […]

[2] = system: Candida glabrata ATCC 2001 (strain H); test: as above; assay type: cell-based; conditions: strain H; compounds 1-4n and AmB; 48 h, RPMI 1640
Experimental: as §1, §2, §3

[3] = system: Candida parapsilosis ATCC 22019 (strain J); test: as above; assay type: cell-based; conditions: strain J; compounds 1-4n and AmB; 48 h, RPMI 1640
Experimental: as §1, §2, §3

[4] = system: Candida albicans ATCC 10231 (strain A); test: as above; assay type: cell-based; conditions: strain A; compounds 1-4n and AmB; 48 h, RPMI 1640
Experimental: as §1, §2, §3

[5] = system: C. albicans ATCC MYA-2310(S) (strain E); test: as above; assay type: cell-based, Candida albicans; conditions: strain E; compounds 1-4n and AmB; 48 h, RPMI 1640
Experimental: as §1, §2, §3

[6] = system: C. albicans ATCC MYA-2876(S) (strain C); test: as above; assay type: cell-based, Candida albicans; conditions: strain C; compounds 1-4n and AmB; 48 h, RPMI 1640
Experimental: as §1, §2, §3

[7] = system: Aspergillus flavus ATCC MYA-3631 (strain K); test: Antifungal MIC determination, filamentous fungi spores; assay type: cell-based; conditions: all compounds
Experimental: as §1, §2
(§4) The MIC values against fungal strains were determined based on a previously published protocol. MIC values for ebsulfur (2a) analogues against fungal cells were evaluated in 96-well plates as described in the CLSI document M27-A3 with minor modifications. […] Therefore, potato dextrose broth (PDB) was used to grow the yeast inocula of all strains tested, which were later diluted in RPMI 1640 medium to perform determination of MIC values. […] The tested compounds (10 mg/mL) were diluted to the working stocks (500 μg/mL) by addition of DMSO. Two-fold serial dilution of the working stocks was prepared by addition of RPMI 1640 medium (100 μL) and cell suspension (100 μL) to 96-well microtiter plate to achieve final drug and inoculum concentrations ranging from 12.5-0.02 μg/mL and 5×10^3 CFU/mL, respectively. Plates were incubated for 48 h at 35° C.
(§5) MIC assays for the spore-forming filamentous fungi, such as strain A. flavus ATCC MYA-3631 (strain K), were performed in a similar fashion. The filamentous fungal strains were first cultured at 25° C. on potato dextrose agar (PDA) plates for 3-5 days or until confluent. Spores were collected by washing the surface of the agar plates with dd H2O (5 mL) and then isolated the spores by gravity filtration (the spores are H2O soluble). […] Researchers working with spores should wear a facemask to prevent spore inhalation.

[8] = system: Aspergillus nidulans ATCC 38163 (strain L); test: as above; assay type: cell-based; conditions: strain L; spores
Experimental: as §1, §2, §4, §5

[9] = system: Aspergillus terreus ATCC MYA-3633 (strain M); test: as above; assay type: cell-based; conditions: strain M; all compounds; spores
Experimental: as §1, §2, §4, §5

[10] = system: C. albicans ATCC MYA-1237(R) (strain F); test: microbe, parasite or virus in culture; assay type: cell-based, Candida albicans; conditions: strain F; compounds 1-4n and AmB; 48 h, RPMI 1640
Experimental: as §1, §2, §3

[11] = system: C. albicans ATCC MYA-1003(R) (strain G); test: microbe, parasite or virus in culture; assay type: cell-based, Candida albicans; conditions: strain G; compounds 1-4n and AmB; 48 h, RPMI 1640
Experimental: as §1, §2, §3

[12] = system: C. albicans ATCC 64124 (strain B); test: microbe, parasite or virus in culture; assay type: cell-based, Candida albicans; conditions: strain B; compounds 1-4n and AmB; 48 h, RPMI 1640
Experimental: as §1, §2, §3

[13] = system: C. albicans ATCC 90819(R) (strain D); test: microbe, parasite or virus in culture; assay type: cell-based, Candida albicans; conditions: strain D; compounds 1-4n and AmB; 48 h, RPMI 1640
Experimental: as §1, §2, §3

[14] = system: Candida and Aspergillus strains; test: Antifungal MIC, summary over whole panel of fungal strains; assay type: cell-based; conditions: oxidized analogues
Experimental: as §1, §2, §3

[15] = system: C. albicans ATCC 10231 (strain A); test: ROS production assay (DCFH-DA); assay type: cell-based, Candida albicans; conditions: 1× and 2× MIC (H2O2 1 mM), 1-h treatment
Experimental: ROS production assay was performed as previously described with minor modifications. […] Once entering the cells, the DCFH-DA probe is first hydrolyzed to the non-fluorescent 2′,7′-dichlorodihydrofluorescein (DCFH) by cellular esterases. […] A colony of C. albicans ATCC 10231 (strain A) was used to inoculate 5 mL of PDB in a Falcon tube and grown overnight at 35° C. at 200 rpm.
Thus, whether the compounds of the invention would also induce ROS against C. albicans was studied. […] 2′,7′-dichlorodihydrofluorescin diacetate (DCFH-DA) was then used to detect and visualize ROS production (FIG. 5). As a positive control, cells were treated with H2O2, which is an inducer of hydroxyl radical formation.

Candida strains (A-J) = test: Antifungal MIC, summary over panel of Candida strains; assay type: cell-based; conditions: Candida strains A-J
Experimental: as §1, §2, §3

SMILES	MIC-0 [1] [µg/mL]	MIC-0 [2] [µg/mL]	MIC-0 [3] [µg/mL]	MIC-0 [4] [µg/mL]	MIC-0 [5] [µg/mL]	MIC-0 [6] [µg/mL]	MIC-0 [7] [µg/mL]	MIC-0 [8] [µg/mL]	MIC-0 [9] [µg/mL]	MIC-0 [10] [µg/mL]	MIC-0 [11] [µg/mL]	MIC-0 [12] [µg/mL]	MIC-0 [13] [µg/mL]	antifungal activity after oxidizing the sulfur atom to sulfoxide [14]	ROS induction (DCFH-DA fluorescence) [15]	MIC values against Candida strains, range (Candida strains (A-J)) [µg/mL]
O=c1c2ccccc2[s+]([O-])n1C1CCCCCCC1 (stereo not shown) [Compound 4n]	>12.5	>12.5	>12.5	>12.5	>12.5	>12.5	>12.5	>12.5	>12.5	>12.5	>12.5	>12.5	>12.5	completely abolished	–	–
CC(C)Cn1c(=O)c2ccccc2[s+]1[O-] (stereo not shown) [Compound 4e]	>12.5	>12.5	>12.5	>12.5	>12.5	>12.5	>12.5	>12.5	>12.5	>12.5	>12.5	>12.5	>12.5	completely abolished	–	–
OO [Compound H2O2, H2O2, reference compound]	–	–	–	–	–	–	–	–	–	–	–	–	–	–	highly fluorescent	–
O=c1c2ccccc2sn1C1CCCCC1 [Compound 3l]	0.78 (≈ 3.34 µM)	1.56 (≈ 6.69 µM)	1.56 (≈ 6.69 µM)	0.78 (≈ 3.34 µM)	1.56 (≈ 6.69 µM)	3.13 (≈ 13.4 µM)	0.20 (≈ 0.857 µM)	0.20 (≈ 0.857 µM)	0.20 (≈ 0.857 µM)	0.78 (≈ 3.34 µM)	1.56 (≈ 6.69 µM)	1.56 (≈ 6.69 µM)	0.78 (≈ 3.34 µM)	–	–	0.78 to 3.13
